Source: US20060199864A1, “Selection of pH-dependent compounds for in vivo therapy” (priority 2004, published 2006)
“Also recorded” adds a separate entry of the source. Like-named read-outs stand apart in the source and are kept apart here.

Tests used:
[1] = Locomotor activity of rats (light beam breaks); settings: for effects on locomotor activity: monitored 2 hours after injection; for effects on locomotor activity (positive control): varying doses IP
Experimental: The Locomotor Activity Index is the total number of beam breaks during the trial divided by 1000.
Locomotor activity was monitored after injection for 2 hours.

NR1/NR2A [2] = target: T1, NR1/NR2A (Rattus norvegicus, UniProt P35439+Q00959); settings: FIG. 4
T1 sequence (Q00959 23-1464, other chains not shown): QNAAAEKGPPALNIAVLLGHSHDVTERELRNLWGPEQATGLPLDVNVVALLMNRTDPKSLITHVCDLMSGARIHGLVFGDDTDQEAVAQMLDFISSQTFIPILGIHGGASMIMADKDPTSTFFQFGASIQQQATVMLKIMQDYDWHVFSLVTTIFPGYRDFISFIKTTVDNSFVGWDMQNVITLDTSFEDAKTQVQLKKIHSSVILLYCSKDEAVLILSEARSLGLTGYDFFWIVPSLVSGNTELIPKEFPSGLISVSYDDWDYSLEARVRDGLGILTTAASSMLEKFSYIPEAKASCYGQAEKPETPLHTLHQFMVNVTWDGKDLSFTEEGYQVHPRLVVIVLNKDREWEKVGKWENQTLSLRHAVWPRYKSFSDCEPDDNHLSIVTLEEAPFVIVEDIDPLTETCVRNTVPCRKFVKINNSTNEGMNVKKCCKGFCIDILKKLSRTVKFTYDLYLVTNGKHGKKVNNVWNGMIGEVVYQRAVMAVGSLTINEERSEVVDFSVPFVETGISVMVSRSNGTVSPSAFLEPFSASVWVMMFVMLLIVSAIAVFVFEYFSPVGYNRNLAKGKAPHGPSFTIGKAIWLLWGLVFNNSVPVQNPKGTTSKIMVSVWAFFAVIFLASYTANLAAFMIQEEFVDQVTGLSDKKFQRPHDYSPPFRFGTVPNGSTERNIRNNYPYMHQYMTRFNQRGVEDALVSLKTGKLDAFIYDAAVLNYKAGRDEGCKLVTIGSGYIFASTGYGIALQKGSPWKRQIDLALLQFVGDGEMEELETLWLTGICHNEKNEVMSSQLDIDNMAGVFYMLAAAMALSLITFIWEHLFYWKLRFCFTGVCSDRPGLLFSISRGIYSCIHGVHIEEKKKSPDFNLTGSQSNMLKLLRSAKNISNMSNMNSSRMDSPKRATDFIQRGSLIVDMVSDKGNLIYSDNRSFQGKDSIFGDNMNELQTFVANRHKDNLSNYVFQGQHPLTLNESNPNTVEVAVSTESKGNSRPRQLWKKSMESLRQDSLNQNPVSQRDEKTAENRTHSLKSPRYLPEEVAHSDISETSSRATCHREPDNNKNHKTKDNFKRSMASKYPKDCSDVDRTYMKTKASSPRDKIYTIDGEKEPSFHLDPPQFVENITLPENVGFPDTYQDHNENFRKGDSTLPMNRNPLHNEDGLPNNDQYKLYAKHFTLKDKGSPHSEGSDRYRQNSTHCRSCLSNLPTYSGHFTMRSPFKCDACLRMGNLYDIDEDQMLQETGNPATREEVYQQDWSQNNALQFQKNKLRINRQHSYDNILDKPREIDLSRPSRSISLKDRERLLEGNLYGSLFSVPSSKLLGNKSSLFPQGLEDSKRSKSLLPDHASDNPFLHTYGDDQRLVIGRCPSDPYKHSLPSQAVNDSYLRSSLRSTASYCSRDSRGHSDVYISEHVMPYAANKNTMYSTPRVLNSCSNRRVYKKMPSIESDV
Experimental: Stage V and VI oocytes were surgically removed from the ovaries of large, well-fed and healthy Xenopus laevis anesthetized with 3-amino-benzoic acid ethyl ester (1 gm/l). Clusters of oocytes were incubated with 292 U/ml Worthington (Freehold, N.J.) type IV collagenase or 1.3 mg/ml collagenase (Life Technologies, Gaithersburg, Md.; 17018-029) for 2 hr in Ca2+-free solution comprised of (in mM) 115 NaCl, 2.5 KCl, and 10 HEPES, pH 7.5, with slow agitation to remove the follicular cell layer. Oocytes were then washed extensively in the same solution supplemented with 1.8 mM CaCl2 and maintained in Barth's solution comprised of (in mM): 88 NaCl, 1 KCl, 24 NaHCO3, 10 HEPES, 0.82 MgSO4, 0.33 Ca(NO3)2, and 0.91 CaCl2 and supplemented with 100 ug/ml gentamycin, 40 ug/ml streptomycin, and 50 ug/ml penicillin. Oocytes were manually defolliculated and injected within 24 hr of isolation with 5 ng of NR1 subunit and 10 ng of NR2 subunit in a 50 nl volume, and incubated in Barth's solution at 18° C. for 3-7 d. Glass injection pipettes had tip sizes ranging from 10-20 microns, and were backfilled with mineral oil.
These stock solutions were subsequently diluted to the appropriate concentration range in a working solution comprised of 90 mM NaCl, 3 mM KCl, 5 mM HEPES, 0.5 mM BaCl2, 10 uM EDTA, 100 uM glutamate, 50 uM glycine (pH either 6.9 or 7.6 adjusted with NAOH or HCl as appropriate). […]

AMPA receptors = assay: Two electrode voltage clamp, Xenopus oocytes injected with AMPA receptor subunits; format: cell-based; settings: 3 uM coadministered with glutamate
Experimental: (§1) Glutamate or domoate induced current recordings were performed using two electrode voltage clamp, and 3 uM of Compound 93-4 coadministered with agonist (glutamate for AMPA receptors, domoate for kainate receptors).

NR1/NR2B = target: T2, NR1/NR2B (Rattus norvegicus, UniProt P35439+Q00960); assay: NMDA receptor mediated currents, NR1/NR2B; format: cell-based; settings: 3 uM; NR1/NR2B subunits
T2 construct: expressed in transfected cells
T2 sequence (Q00960 27-1482, other chains not shown): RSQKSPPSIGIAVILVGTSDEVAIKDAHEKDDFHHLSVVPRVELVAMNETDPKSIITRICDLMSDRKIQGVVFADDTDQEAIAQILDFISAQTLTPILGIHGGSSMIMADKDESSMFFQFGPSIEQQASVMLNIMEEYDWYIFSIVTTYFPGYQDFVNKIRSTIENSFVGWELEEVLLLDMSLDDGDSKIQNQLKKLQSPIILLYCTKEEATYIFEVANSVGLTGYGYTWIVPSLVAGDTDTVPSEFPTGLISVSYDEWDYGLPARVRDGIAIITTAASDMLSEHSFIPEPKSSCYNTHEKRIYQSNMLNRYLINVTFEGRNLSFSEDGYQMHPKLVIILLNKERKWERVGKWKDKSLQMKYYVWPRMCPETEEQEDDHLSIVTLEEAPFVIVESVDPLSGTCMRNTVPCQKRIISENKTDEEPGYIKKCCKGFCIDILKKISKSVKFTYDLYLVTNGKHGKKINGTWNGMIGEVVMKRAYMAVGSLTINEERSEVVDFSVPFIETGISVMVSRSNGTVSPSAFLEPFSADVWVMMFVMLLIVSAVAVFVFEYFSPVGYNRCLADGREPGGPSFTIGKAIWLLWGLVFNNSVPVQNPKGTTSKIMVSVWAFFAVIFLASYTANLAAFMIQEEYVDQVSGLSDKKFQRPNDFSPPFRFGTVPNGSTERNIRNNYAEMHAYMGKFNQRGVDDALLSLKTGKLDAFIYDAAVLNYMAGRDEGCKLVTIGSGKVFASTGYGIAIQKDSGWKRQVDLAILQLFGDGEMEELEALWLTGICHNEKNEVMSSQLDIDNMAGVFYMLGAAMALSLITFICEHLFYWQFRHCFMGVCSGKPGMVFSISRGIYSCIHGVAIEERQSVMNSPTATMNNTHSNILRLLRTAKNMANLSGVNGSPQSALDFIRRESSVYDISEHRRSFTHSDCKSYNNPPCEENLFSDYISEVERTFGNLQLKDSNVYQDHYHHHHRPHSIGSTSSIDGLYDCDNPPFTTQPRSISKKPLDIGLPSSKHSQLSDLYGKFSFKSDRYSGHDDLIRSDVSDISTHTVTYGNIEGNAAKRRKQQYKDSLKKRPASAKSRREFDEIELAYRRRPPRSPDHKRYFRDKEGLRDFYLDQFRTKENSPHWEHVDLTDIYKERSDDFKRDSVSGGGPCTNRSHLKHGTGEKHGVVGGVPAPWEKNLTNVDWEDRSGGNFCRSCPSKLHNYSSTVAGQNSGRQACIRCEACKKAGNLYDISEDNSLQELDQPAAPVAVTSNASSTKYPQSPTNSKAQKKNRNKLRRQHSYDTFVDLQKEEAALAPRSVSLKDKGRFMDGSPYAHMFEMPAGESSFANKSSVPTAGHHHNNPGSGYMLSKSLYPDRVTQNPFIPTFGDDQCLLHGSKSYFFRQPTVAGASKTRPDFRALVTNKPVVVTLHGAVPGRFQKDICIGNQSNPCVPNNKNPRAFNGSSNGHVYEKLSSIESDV

NR1/NR2D = target: T3, NR1/NR2D (Rattus norvegicus, UniProt P35439+Q62645); assay: NMDA receptor mediated currents, NR1/NR2D; format: cell-based; settings: 3 uM
T3 construct: expressed in transfected cells
T3 sequence (Q62645 28-1323, other chains not shown): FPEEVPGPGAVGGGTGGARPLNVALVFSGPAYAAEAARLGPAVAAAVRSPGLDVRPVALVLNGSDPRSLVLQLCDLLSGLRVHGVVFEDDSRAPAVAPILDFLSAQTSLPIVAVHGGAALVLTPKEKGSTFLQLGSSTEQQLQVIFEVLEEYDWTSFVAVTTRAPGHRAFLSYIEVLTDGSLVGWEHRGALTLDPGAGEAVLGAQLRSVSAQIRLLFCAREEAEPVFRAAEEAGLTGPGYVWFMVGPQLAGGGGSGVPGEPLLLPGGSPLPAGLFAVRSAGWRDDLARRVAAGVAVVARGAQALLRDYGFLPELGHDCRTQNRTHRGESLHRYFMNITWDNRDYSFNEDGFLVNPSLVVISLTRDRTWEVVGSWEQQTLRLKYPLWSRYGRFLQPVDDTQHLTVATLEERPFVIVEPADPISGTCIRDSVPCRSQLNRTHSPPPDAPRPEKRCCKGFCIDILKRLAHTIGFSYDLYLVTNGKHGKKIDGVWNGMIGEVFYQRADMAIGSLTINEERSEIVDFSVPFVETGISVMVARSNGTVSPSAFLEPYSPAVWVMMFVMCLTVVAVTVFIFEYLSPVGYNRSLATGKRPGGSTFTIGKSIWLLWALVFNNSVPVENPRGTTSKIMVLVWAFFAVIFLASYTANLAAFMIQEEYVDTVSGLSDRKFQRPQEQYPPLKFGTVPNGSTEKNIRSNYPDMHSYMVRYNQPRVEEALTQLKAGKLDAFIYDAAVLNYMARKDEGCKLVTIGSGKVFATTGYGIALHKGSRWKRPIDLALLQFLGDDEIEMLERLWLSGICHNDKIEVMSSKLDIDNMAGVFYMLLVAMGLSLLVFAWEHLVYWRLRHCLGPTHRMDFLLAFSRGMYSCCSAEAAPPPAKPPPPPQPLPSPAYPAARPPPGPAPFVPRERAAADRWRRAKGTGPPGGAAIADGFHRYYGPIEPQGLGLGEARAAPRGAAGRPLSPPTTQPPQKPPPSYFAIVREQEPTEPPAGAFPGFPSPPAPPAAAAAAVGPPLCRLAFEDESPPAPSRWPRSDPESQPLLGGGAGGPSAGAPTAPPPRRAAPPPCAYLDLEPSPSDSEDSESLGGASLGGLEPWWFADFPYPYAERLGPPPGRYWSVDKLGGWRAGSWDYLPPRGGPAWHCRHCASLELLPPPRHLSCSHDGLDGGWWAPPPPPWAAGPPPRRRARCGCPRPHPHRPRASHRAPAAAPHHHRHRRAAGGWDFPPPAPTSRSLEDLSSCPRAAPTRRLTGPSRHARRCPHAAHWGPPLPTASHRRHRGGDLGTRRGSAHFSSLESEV

kainate receptors = assay: Two electrode voltage clamp, Xenopus oocytes injected with kainate receptor subunits; format: cell-based; settings: 3 uM coadministered with domoate
Experimental: as §1

NR1/NR2A [3] = target: T1, NR1/NR2A; assay: NMDA receptor mediated currents, NR1/NR2A; format: cell-based; design: expressed in transfected cells; settings: 3 uM
[4] = Side effects observed in the SNL study; format: in vivo, Sprague-Dawley rats
Experimental: (§2) Experimental design: von Frey baseline measurements were made 30 minutes and 24 hours prior to drug administration respectively. Additional von Frey measurements were made at 30, 60, 120 and 240 min. The timeline for testing is summarized below. The experimental groups were: ·vehicle (1% DMSO+66% PEG 400 in distilled water, i.p., 4 ml/kg, n=10)·30 mg/kg Compound 93-31 test (i.p., 4 ml/kg, n=10)·100 mg/kg Compound 93-31 test (i.p., 4 ml/kg, n=10)·30 mg/kg Compound 93-97 test (i.p., 4 ml/kg, n=10)·100 mg/kg Compound 93-97 test (i.p., 4 ml/kg, n=10)·100 mg/kg Gabapentin (i.p., 4 ml/kg, n=12) (Total rats: 62). [drawing 42]
The side effects observed were writhing and stretching (8 observations). These side effects were most commonly seen for the first few minutes (˜5 minutes) following i.p. drug administration. […] Some side effects were observed while measuring the endpoints. The most common was stretching/writhing which may be a sign of some visceral pain or hypersensitivity. […] It seems likely to be associated with i.p. administration of the vehicle in a subset of animals. This seemed relatively rare, short lived (<5 min), and the magnitude was not large enough to interfere with measurement of the endpoint.

[5] = Spinal Nerve Ligation (SNL) model, mechanical allodynia (von Frey); format: in vivo, Sprague-Dawley rats; settings: for Injured paw - von Frey threshold: mean ± SEM
Experimental: Animals: Male Sprague-Dawley rats (Hsd:Sprague-Dawley®™SD®™, Harlan, Indianapolis, Ind., U.S.A.) weighing 100±10 g on surgery day and 250±10 g on testing day were housed three per cage. Animals had free access to food and water and were maintained on a 12:12 h light/dark schedule. The animal colony was maintained at 21° C. and 60% humidity. All experiments were conducted in accordance with the International Association for the Study of Pain guidelines and were approved by the University of Minnesota Animal Care and Use Committee.
Drugs and dosing solutions: The drugs were dissolved in 1% v/v DMSO and 66% v/v PEG 400 in distilled water. Compounds were administered by i.p. route.
Induction of chronic neuropathic pain: The Spinal Nerve Ligation (SNL) model (Kim and Chung 1992 Pain 50:355-63.) was used to induce chronic neuropathic pain. The animals were anesthetized with isoflurane, the left […] transverse process was removed, and the L5 and L6 spinal nerves were tightly ligated with 6-0 silk suture. The wound was then closed with internal sutures and external staples. Wound clips were removed 10 days following surgery.
Mechanical allodynia testing: Baseline and post-treatment values for non-noxious mechanical sensitivity were evaluated using 8 Semmes-Weinstein filaments (Stoelting, Wood Dale, Ill., USA) with varying stiffness (0.4, 0.7, 1.2, 2.0, 3.6, 5.5, 8.5, and 15 g) according to the up-down method (Chaplan, Bach et al. 1994 J Neurosci Methods 53: 55-63). Animals were placed on a perforated metallic platform and allowed to acclimate to their surroundings for a minimum of 30 minutes before testing. The mean and standard error of the mean (SEM) were determined for each animal in each treatment group. Since this stimulus is normally not considered painful, significant injury-induced increases in responsiveness in this test are interpreted as a measure of mechanical allodynia.
as §2
Data analysis: Statistical analyses were conducted using Prism™ 4.01 (GraphPad, San Diego, Calif., USA). Mechanical allodynia of the injured paw was determined by comparing values observed in the contralateral and ipsilateral paws within the vehicle group. Stability of vehicle group injured paw values over time was tested using the Friedman two-way analysis of variance by rank. Drug effect was analyzed at each time point by carrying out a Kruskal-Wallis one-way analysis of variance by rank followed by a Dunn's post hoc test.
Testing for mechanical allodynia (von Frey) was initiated 14 days after SNL surgery. Tests were performed on both injured (ipsilateral) and normal (contralateral) paws at baseline (30 minutes before drug administration) and 30, 60, 120 and 240 minutes after a single drug administration.

[6] = tested on: primary cultures of rat cerebral cortex; settings: pH 6.5 vs pH 7.5; Mott et al. 1998; cited from earlier work
[7] = rats; Dogan et al.; cited from earlier work
[8] = cats; highest dose tested; Gotti et al.; cited from earlier work
[9] = cats and rats; highest dose tested; Gotti et al.; cited from earlier work

## C[C@@]12N[C@@H](Cc3ccccc31)c1ccccc12 [(−)MK801, reference compound]
[1]; compared to vehicle injected control animals
  fold less potent than (+)MK801 in causing the induction of locomotor activity: at least 10 fold
NR1/NR2A [2]
  mean within the shaded area (criteria for improved drug performance) for NR1/NR2A: fall within the shaded area

## CS(=O)(=O)Nc1ccc(OC[C@@H](O)CNCCc2ccc(Cl)c(Cl)c2)cc1 [Compound 93-4]
[1]; 3-300 mg/kg IP
  effects on locomotor activity: no significant effects
AMPA receptors
  reduction in the agonist induced response: No reduction
NR1/NR2B
  inhibiting NMDA receptor mediated currents: effective at inhibiting
NR1/NR2D
  inhibiting NMDA receptor mediated currents: not NR1/NR2A or NR1/NR2D
Kainate receptors
  reduction in the agonist induced response: No reduction
NR1/NR2A [3]
  inhibiting NMDA receptor mediated currents: not NR1/NR2A

## CCN(CCc1ccc(Cl)c(Cl)c1)C[C@H](O)COc1ccc(NS(C)(=O)=O)cc1 [Compound 93-5]
[1]; 3-300 mg/kg IP
  effects on locomotor activity: no significant effects

## CS(=O)(=O)Nc1ccc(OC[C@@H](O)CN(CCO)CCc2ccc(Cl)c(Cl)c2)cc1 [Compound 93-8]
[1]; 30-300 mg/kg IP
  effects on locomotor activity: no significant effects

## CCCCN(CCc1ccc(Cl)c(Cl)c1)C[C@H](O)COc1ccc(NS(C)(=O)=O)cc1 [Compound 93-31]
[1]; 3-300 mg/kg IP
  effects on locomotor activity: no significant effects
[1]; IP, doses up to 300 mg/kg, FIG. 5
  effect on locomotor activity index: no significant effect
[4]; 30 mg/kg i.p.
  Side Effects: stretching/writhing (animals affected/group): 0/10 stretching/writhing
[5]; 30 mg/kg i.p., any time point studied
  analgesic effect, injured paw: no analgesic effect
[5]; 30 mg/kg i.p., 30 min
  Injured paw - von Frey threshold: 1.9 ± 0.3
[5]; 30 mg/kg i.p., 60 min
  Injured paw - von Frey threshold: 1.7 ± 0.1
[5]; 30 mg/kg i.p., 120 min
  Injured paw - von Frey threshold: 0.8 ± 0.2
[5]; 30 mg/kg i.p., 240 min
  Injured paw - von Frey threshold: 1.1 ± 0.3
[5]; 30 mg/kg i.p., Baseline
  Injured paw - von Frey threshold: 2.4 ± 0.4
[5]; 100 mg/kg i.p.
  analgesia / attenuation of mechanical allodynia, injured paw: observable analgesia at 30 and 60 min; also recorded: appeared to attenuate mechanical allodynia; also recorded: attenuated mechanical allodynia
  duration of action: 60 min
  onset: 30 min
  peak threshold relative to the normal paw: approximately half of that seen in the normal paw
[5]; 100 mg/kg i.p., 30 min
  Injured paw - von Frey threshold: 9.3 ± 1.5
[5]; 100 mg/kg i.p., 60 min
  Injured paw - von Frey threshold: 8.9 ± 1.7
[5]; 100 mg/kg i.p., 120 min
  Injured paw - von Frey threshold: 1.9 ± 0.3
[5]; 100 mg/kg i.p., 240 min
  Injured paw - von Frey threshold: 0.8 ± 0.2
[5]; 100 mg/kg i.p., Baseline
  Injured paw - von Frey threshold: 1.7 ± 0.3
[5]; 30 and 100 mg/kg i.p.
  effect on von Frey thresholds measured in the normal paw: no effect on the normal paw
[5]; Rattus norvegicus, ip, assuming complete reversal may be achieved with higher doses
  ED50: ~100 mg/kg

## CS(=O)(=O)Nc1ccc(OC[C@H](O)CN(CCc2ccc(Cl)c(Cl)c2)Cc2ccccc2O)cc1 [Compound 93-40]
[1]; 30 mg/kg IP
  effects on locomotor activity: no significant effects

## CS(=O)(=O)Nc1ccc(OCC(O)CN(CCc2ccc(Cl)c(Cl)c2)Cc2cccc(O)c2)cc1 (stereo not shown) [Compound 93-41]
[1]; 30-300 mg/kg IP
  effects on locomotor activity: no significant effects

## CC(C)CN(CCc1ccc(Cl)c(Cl)c1)C[C@H](O)COc1ccc(NS(C)(=O)=O)cc1 [Compound 93-97]
[4]; 30 mg/kg i.p.
  Side Effects: stretching/writhing (animals affected/group): 2/10 stretching/writhing (for first 5 min)
[5]; 30 mg/kg i.p., 30 min
  Injured paw - von Frey threshold: 1.6 ± 0.3
[5]; 30 mg/kg i.p., 60 min
  Injured paw - von Frey threshold: 1.1 ± 0.1
[5]; 30 mg/kg i.p., 120 min
  Injured paw - von Frey threshold: 0.9 ± 0.1
[5]; 30 mg/kg i.p., 240 min
  Injured paw - von Frey threshold: 1.0 ± 0.2
[5]; 30 mg/kg i.p., Baseline
  Injured paw - von Frey threshold: 1.9 ± 0.2
[5]; 100 mg/kg i.p., 30 min
  Injured paw - von Frey threshold: 1.1 ± 0.2
[5]; 100 mg/kg i.p., 60 min
  Injured paw - von Frey threshold: 1.4 ± 0.3
[5]; 100 mg/kg i.p., 120 min
  Injured paw - von Frey threshold: 1.0 ± 0.1
[5]; 100 mg/kg i.p., 240 min
  Injured paw - von Frey threshold: 0.8 ± 0.2
[5]; 100 mg/kg i.p., Baseline
  Injured paw - von Frey threshold: 1.2 ± 0.1
[5]; 30 and 100 mg/kg i.p.
  effect on von Frey thresholds measured in the normal paw: no effect on normal paw
[5]; 30 and 100 mg/kg i.p., any time point studied
  analgesic effect / attenuation of mechanical allodynia, injured paw: no analgesic effect; also recorded: failed to attenuate mechanical allodynia

## NCC1(CC(=O)O)CCCCC1 [Gabapentin, reference compound]
[4]; 100 mg/kg i.p., for first 5 min
  Side Effects: stretching/writhing (animals affected/group): 1/10 stretching/writhing (for first 5 min)
[5]; 100 mg/kg i.p., 30 min
  Injured paw - von Frey threshold: 6.0 ± 1.1
[5]; 100 mg/kg i.p., 60 min
  Injured paw - von Frey threshold: 11.1 ± 1.5
[5]; 100 mg/kg i.p., 120 min
  Injured paw - von Frey threshold: 13.6 ± 0.9
[5]; 100 mg/kg i.p., 240 min
  Injured paw - von Frey threshold: 6.6 ± 1.3
[5]; 100 mg/kg i.p., Baseline
  Injured paw - von Frey threshold: 1.9 ± 0.2

## CC(C(O)c1ccc(O)cc1)N1CCC(Cc2ccccc2)CC1 (stereo not shown) [Ifenprodil]
[6]
  pH dependence of potency: more potent at lower pH (6.5) than higher pH (7.5)
[7]
  decrease in infarct volume: 22%
[8]
  decrease infarct volume: 42%

## OC(CN1CCC(Cc2ccc(F)cc2)CC1)c1ccc(Cl)cc1 (stereo not shown) [SL 82.0715]
[9]
  decrease in infarct volume: 36-48%

## CNC1(c2ccccc2Cl)CCCCC1=O (stereo not shown) [ketamine]
NR1/NR2A [2]
  mean within the shaded area (criteria for improved drug performance) for NR1/NR2A: fall within the shaded area

## (+)MK801 [reference compound]
[1]
  effects on locomotor activity (positive control): stereotypical biphasic effects on locomotor activity
[1]; listed as (+)MK-801
  effects on locomotor activity (positive control): induced locomotor activity at low doses and ataxia at higher doses
